Assay results from publication PMC12395308 (ACS Central Science, 2025).
Values belong to the compound of their own block, whether it stands above or below them.

How the values were obtained:
[1] = In vivo plasma exposure after a single oral dose (RACE-PK); conditions: single oral dose 10 mg/kg; for plasma eAUC20m–120m (AcINH) / plasma eAUC20m–120m (INH): n=3
[2] = Aqueous stability in acidic and basic buffer (HPLC); conditions: post 24 h of incubation; for chemical stability, pH (3.0): percentage of parent remaining: acidic buffer; for chemical stability, pH (7.6): percentage of parent remaining: basic buffer
[3] = Complete pharmacokinetic analysis after a single oral dose; conditions: for concentration at 0.33 h / concentration at 1 h / concentration at 2 h / concentration at 4 h / concentration at 6 h / concentration at 24 h: Balb/C, mouse, plasma, po, 10 mg/kg of INH (prodrugs at molar equivalent); for plasma concentration of free INH (mean) / plasma concentration of released AcINH (mean) / plasma concentration of released INA (mean) / Vd, unchanged prodrug / plasma level of AcHz formed in vivo: single oral dose; for Vd, unchanged prodrug: molar equivalent of 10 mg/kg INH; for plasma level of AcHz formed in vivo: all time points 0.083–24 h
[4] = Bioconversion of prodrugs in plasma, ex vivo (mice); conditions: 200 μg/mL; for % of prodrug remaining at 20 h, mice plasma: 37 °C, ex vivo; for eAUC20m–20h in mice plasma, prodrug: 20 h ex vivo incubation
[5] = In vivo plasma exposure after repetitive single oral dosing for 10 consecutive days; conditions: 10th dose, oral, molar equivalent of 10 mg/kg INH
[6] = Chemical stability in neat DMSO (UV spectrophotometer); conditions: post 24 h of incubation
[7] = Intestinal homogenate conversion assay; format: in vitro ADME, mice; conditions: 50 μg/mL; for percentage of prodrug remaining after 20 h of incubation, intestine homogenate: ex vivo
[8] = Stomach homogenate conversion assay; format: in vitro ADME, mice; conditions: 50 μg/mL; for percentage of prodrug remaining after 20 h of incubation, stomach homogenate: ex vivo
[9] = Aqueous solubility in Tris HCl buffer (pH 7.4), shake flask method; conditions: 37 °C, pH 7.4, aqueous buffer, thermodynamic from solid
[10] = Lipophilicity (logD) by shake flask method
[11] = Bioconversion of prodrugs in plasma, ex vivo (human); conditions: 200 μg/mL; for % of prodrug remaining at 20 h, human plasma: 37 °C, ex vivo; for eAUC20m–20h in human plasma, prodrug: 20 h ex vivo incubation

Compound: COC(=O)NNC(=O)c1ccncc1.Cl [prodrug 1a]
plasma concentration of AcINH at 20 min [1]: BLQ | plasma concentration of in vivo released free INH at 20 min [1]: BLQ | plasma eAUC20m–120m (AcINH) [1]: BLQ ^d | plasma eAUC20m–120m (INH) [1]: BLQ ^d | chemical stability, pH (3.0): percentage of parent remaining [2]: 100.0% | chemical stability, pH (7.6): percentage of parent remaining [2]: 100.0% | concentration at 0.33 h [3]: 148000 ng/mL | concentration at 1 h [3]: 63200 ng/mL | concentration at 2 h [3]: 31400 ng/mL | concentration at 4 h [3]: 1400 ng/mL | concentration at 6 h [3]: 571 ng/mL | concentration at 24 h [3]: 208 ng/mL | plasma concentration of free INH (mean) ([3]; 1 h): BLQ | plasma concentration of released AcINH (mean) ([3]; 1 h): BLQ | plasma concentration of free INH (mean) ([3]; 2 h): BLQ | plasma concentration of released AcINH (mean) ([3]; 2 h): BLQ | plasma concentration of free INH (mean) ([3]; 4 h): BLQ | plasma concentration of released AcINH (mean) ([3]; 4 h): BLQ | plasma concentration of released INA (mean) ([3]; 4 h): BLQ | plasma concentration of free INH (mean) ([3]; 6 h): BLQ | plasma concentration of released AcINH (mean) ([3]; 6 h): BLQ | plasma concentration of released INA (mean) ([3]; 6 h): BLQ | plasma concentration of free INH (mean) ([3]; 24 h): BLQ | plasma concentration of released AcINH (mean) ([3]; 24 h): BLQ | plasma concentration of released INA (mean) ([3]; 24 h): BLQ | Vd, unchanged prodrug [3]: 0.077 ± 0.004 L/kg | plasma level of AcHz formed in vivo [3]: BLQ | % of prodrug remaining at 20 h, mice plasma [4]: 70.5% | eAUC20m–20h in mice plasma, prodrug [4]: 1650 ± 930 ng·h/mL | eAUC20m–6h (AcHz) [5]: BLQ ^d | chemical stability, DMSO: percentage of parent remaining [6]: 100.0% | eAUC0–20h in intestinal homogenate, prodrug [7]: 908,764 ng·h/mL | percentage of prodrug remaining after 20 h of incubation, intestine homogenate [7]: 85% | eAUC0–20h in stomach homogenate, prodrug [8]: 412,453 ng·h/mL | percentage of prodrug remaining after 20 h of incubation, stomach homogenate [8]: 1% | solubility at 24 h ([9]; Tris HCl buffer): 213 mg/mL | logD [10]: -0.2 | % of prodrug remaining at 20 h, human plasma [11]: 40.1% | eAUC20m–20h in human plasma, prodrug [11]: 1418 ± 824 ng·h/mL

Compound: CCOC(=O)NNC(=O)c1ccncc1.Cl [prodrug 1b]
plasma concentration of AcINH at 20 min [1]: BLQ | plasma eAUC20m–120m (AcINH) [1]: BLQ ^d | chemical stability, pH (7.6): percentage of parent remaining [2]: 100.0% | % of prodrug remaining at 20 h, mice plasma [4]: 13.8% | eAUC20m–20h in mice plasma, prodrug [4]: 1214 ± 758 ng·h/mL | eAUC20m–6h (AcHz) [5]: BLQ ^d | chemical stability, DMSO: percentage of parent remaining [6]: 100.0% | solubility at 24 h ([9]; Tris HCl buffer): 326 mg/mL | logD [10]: -0.01 | % of prodrug remaining at 20 h, human plasma [11]: 47.5% | eAUC20m–20h in human plasma, prodrug [11]: 1402 ± 957 ng·h/mL

Compound: CCCOC(=O)NNC(=O)c1ccncc1.Cl [prodrug 1c]
plasma concentration of AcINH at 20 min [1]: BLQ | plasma concentration of in vivo released free INH at 20 min [1]: BLQ | plasma eAUC20m–120m (AcINH) [1]: BLQ ^d | plasma eAUC20m–120m (INH) ([1]; 10 mg/kg): BLQ and BLQ ^d | chemical stability, pH (7.6): percentage of parent remaining [2]: 100.0% | eAUC20m–20h in mice plasma, prodrug [4]: 551 ± 81 ng·h/mL | eAUC20m–6h (AcHz) [5]: BLQ ^d | chemical stability, DMSO: percentage of parent remaining [6]: 100.0% | solubility at 24 h ([9]; Tris HCl buffer): 86 mg/mL | logD [10]: 0.2 | eAUC20m–20h in human plasma, prodrug [11]: 860 ± 131 ng·h/mL

Compound: CCCCOC(=O)NNC(=O)c1ccncc1.Cl [prodrug 1e]
chemical stability, pH (3.0): percentage of parent remaining [2]: 100.0% | chemical stability, pH (7.6): percentage of parent remaining [2]: 100.0% | eAUC20m–20h in mice plasma, prodrug [4]: 180 ± 36 ng·h/mL | eAUC20m–6h (AcHz) [5]: BLQ ^d | chemical stability, DMSO: percentage of parent remaining [6]: 100.0% | solubility at 24 h ([9]; Tris HCl buffer): 49.4 mg/mL | logD [10]: 0.8 | eAUC20m–20h in human plasma, prodrug [11]: 640 ± 116 ng·h/mL

Compound: Cl.O=C(NNC(=O)c1ccncc1)Oc1ccccc1 [prodrug 1j]
plasma concentration of AcINH at 20 min [1]: BLQ | plasma eAUC20m–120m (AcINH) [1]: BLQ ^d | chemical stability, pH (3.0): percentage of parent remaining [2]: 94.6% | chemical stability, pH (7.6): percentage of parent remaining [2]: 58.2% | % of prodrug remaining at 20 h, mice plasma [4]: 85.5% | eAUC20m–20h in mice plasma, prodrug [4]: 7347 ± 655 ng·h/mL | chemical stability, DMSO: percentage of parent remaining [6]: 100.0% | solubility at 24 h [9]: 12.4 mg/mL | logD [10]: 0.9 | % of prodrug remaining at 20 h, human plasma [11]: below the quantification limit and BLQ | eAUC20m–20h in human plasma, prodrug [11]: 752 ± 355 ng·h/mL

The next lines start with results.

chemical stability, pH (3.0): percentage of parent remaining [2]: 98.17% | chemical stability, pH (7.6): percentage of parent remaining [2]: 100.0% | % of prodrug remaining at 20 h, mice plasma [4]: 13.2% | eAUC20m–20h in mice plasma, prodrug [4]: 382 ± 302 ng·h/mL | eAUC20m–6h (AcHz) [5]: BLQ ^d | chemical stability, DMSO: percentage of parent remaining [6]: 100.0% | solubility at 24 h ([9]; Tris HCl buffer): 29.3 mg/mL | logD [10]: 0.9 | eAUC20m–20h in human plasma, prodrug [11]: 854 ± 615 ng·h/mL
Compound: CC(C)COC(=O)NNC(=O)c1ccncc1.Cl [prodrug 1f]

chemical stability, pH (3.0): percentage of parent remaining [2]: 96.9% | chemical stability, pH (7.6): percentage of parent remaining [2]: 100.0% | % of prodrug remaining at 20 h, mice plasma [4]: highly labile and BLQ | eAUC20m–20h in mice plasma, prodrug [4]: 168 ± 91 ng·h/mL | eAUC20m–6h (AcHz) [5]: BLQ ^d | chemical stability, DMSO: percentage of parent remaining [6]: 100.0% | solubility at 24 h ([9]; Tris HCl buffer): 402 mg/mL | logD [10]: 0.2 | % of prodrug remaining at 20 h, human plasma [11]: significant lability and BLQ | eAUC20m–20h in human plasma, prodrug [11]: 530 ± 316 ng·h/mL
Compound: C=CCOC(=O)NNC(=O)c1ccncc1.Cl [prodrug 1g]

chemical stability, pH (3.0): percentage of parent remaining [2]: 100.0% | chemical stability, pH (7.6): percentage of parent remaining [2]: 100.0% | concentration at 0.33 h [3]: 6130 ng/mL | concentration at 1 h [3]: 433 ng/mL | concentration at 2 h [3]: 409 ng/mL | concentration at 4 h [3]: 884 ng/mL | concentration at 6 h [3]: 128 ng/mL | concentration at 24 h [3]: 120 ng/mL | plasma concentration of free INH (mean) ([3]; 4 h): BLQ | plasma concentration of released AcINH (mean) ([3]; 4 h): BLQ | plasma concentration of released INA (mean) ([3]; 4 h): BLQ | plasma concentration of free INH (mean) ([3]; 6 h): BLQ | plasma concentration of released AcINH (mean) ([3]; 6 h): BLQ | plasma concentration of released INA (mean) ([3]; 6 h): BLQ | plasma concentration of free INH (mean) ([3]; 24 h): BLQ | plasma concentration of released AcINH (mean) ([3]; 24 h): BLQ | plasma concentration of released INA (mean) ([3]; 24 h): BLQ | Vd, unchanged prodrug [3]: 2.899 ± 0.3 L/kg | plasma level of AcHz formed in vivo [3]: BLQ | eAUC20m–20h in mice plasma, prodrug [4]: 87 ± 85 ng·h/mL | eAUC20m–6h (AcHz) [5]: BLQ ^d | chemical stability, DMSO: percentage of parent remaining [6]: 100.0% | eAUC0–20h in intestinal homogenate, prodrug [7]: 761,596 ng·h/mL | percentage of prodrug remaining after 20 h of incubation, intestine homogenate [7]: 43% | eAUC0–20h in stomach homogenate, prodrug [8]: 691,560 ng·h/mL | percentage of prodrug remaining after 20 h of incubation, stomach homogenate [8]: 29% | solubility at 24 h ([9]; Tris HCl buffer): 0.4 mg/mL | logD [10]: 1.1 | eAUC20m–20h in human plasma, prodrug [11]: 465 ± 426 ng·h/mL
Compound: Cl.O=C(NNC(=O)c1ccncc1)OCc1ccccc1 [prodrug 1h]

plasma concentration of AcINH at 20 min [1]: BLQ | chemical stability, pH (3.0): percentage of parent remaining [2]: 100.0% | chemical stability, pH (7.6): percentage of parent remaining [2]: 98.3% | % of prodrug remaining at 20 h, mice plasma [4]: 63.8% | eAUC20m–20h in mice plasma, prodrug [4]: 1486 ± 35 ng·h/mL | chemical stability, DMSO: percentage of parent remaining [6]: 100.0% | solubility at 24 h ([9]; Tris HCl buffer): 111 mg/mL | logD [10]: 0.8 | % of prodrug remaining at 20 h, human plasma [11]: 89.1% | eAUC20m–20h in human plasma, prodrug [11]: 2788 ± 217 ng·h/mL
Compound: CCC(C)OC(=O)NNC(=O)c1ccncc1.Cl (stereo not shown) [prodrug 1i]
plasma eAUC20m–120m (AcINH) ([1]; 10 mg/kg): BLQ and below the limit of quantification and BLQ ^d
